Measurements published in US10487064B1, “Crystalline forms of selective S1P1 receptor modulator and preparation method thereof” (Crystal Pharmatech Co., Ltd., priority 2015, dated 2019).
Values after ≈ are worked out from the molar mass of the structure shown. “Also recorded” adds a separate entry of the source.

How the values were obtained:
[1] = Stability assessment of crystalline forms on storage (XRPD before and after); format: physicochemical; details: for stability compared with Form C in prior art: general statement; for Solid Form after storage / Crystalline form after storing: XRPD; for physical stability (overall conclusion): storage conditions of the stability assessment
Procedure: 20 mg of sample of Form 2 was stored under 25° C./60% RH, 40° C./75% RH for 6 months, and 80° C. for 3 months. […] 20 mg of sample of Form 3 was stored under 25° C./60% RH and 40° C./75% RH for 6 months.

[2] = Solubility assessment: saturated solutions in FaSSIF, FeSSIF, SGF and water, concentration by HPLC; format: physicochemical; details: for solubility compared with Form C in prior art: general statement
Procedure: Saturated solution of Form 2 and Form A, Form C disclosed in CN102177144B were prepared in FaSSIF (Fasted state simulated intestinal fluids, pH=6.5), FeSSIF (Fed state simulated intestinal fluids, pH=5.0), SGF (Simulated gastric fluids, pH=1.8), and water. Concentrations in the saturation solutions were measured after 1 hour and 24 hours by HPLC.
Form 3 and Form A, Form C were prepared into saturated solution in FaSSIF (Fasted state simulated intestinal fluids, pH=6.5), FeSSIF (Fed state simulated intestinal fluids, pH=5.0) and water. Concentrations in the saturation solutions were measured after 1 hour and 24 hours by HPLC.

[3] = cited from earlier work
[4] = treatment of moderate-to-severe chronic plaque psoriasis; cited from earlier work

stability compared with Form C in prior art [1]	solubility compared with Form C in prior art [2]	Solubility ([2]; FaSSIF pH=6.5, 1 h) [µg/mL]	Solubility ([2]; FaSSIF pH=6.5, 24 h) [µg/mL]	Solubility ([2]; FeSSIF pH=5.0, 1 h) [µg/mL]	Solubility ([2]; FeSSIF pH=5.0, 24 h) [µg/mL]	Solubility ([2]; SGF pH=1.8, 1 h) [µg/mL]	Solubility ([2]; SGF pH=1.8, 24 h) [µg/mL]	Compound	further results
better	better	–	–	–	–	–	–	CCC/N=C1\S/C(=C\c2ccc(OC[C@H](O)CO)c(Cl)c2)C(=O)N1c1ccccc1C [Form 1, Ponesimod]	–
better	better	17 (≈ 36.9 µM)	33 (≈ 71.6 µM)	996 (≈ 2160 µM)	813 (≈ 1760 µM)	97 (≈ 210 µM)	124 (≈ 269 µM)	CCC/N=C1\S/C(=C\c2ccc(OC[C@H](O)CO)c(Cl)c2)C(=O)N1c1ccccc1C [Form 2, Ponesimod]	Solid Form after storage ([1]; 25° C./60% RH, 6 months): doesn't change; also recorded: Form 2; Solid Form after storage ([1]; 40° C./75% RH, 6 months): doesn't change; also recorded: Form 2; Solid Form after storage ([1]; 80° C., 3 months): doesn't change; also recorded: Form 2; physical stability (overall conclusion) [1]: good physical stability; solubility compared with Form A and Form C ([2]; in FaSSIF, FeSSIF, and SGF): higher
better	better	84 (≈ 182 µM)	15 (≈ 32.5 µM)	1168 (≈ 2530 µM)	486 (≈ 1050 µM)	–	–	CCC/N=C1\S/C(=C\c2ccc(OC[C@H](O)CO)c(Cl)c2)C(=O)N1c1ccccc1C [Form 3, Ponesimod]	Crystalline form after storing ([1]; 25° C./60% RH, 6 months): doesn't change; also recorded: Form 3; Crystalline form after storing ([1]; 40° C./75% RH, 6 months): doesn't change; also recorded: Form 3; physical stability (overall conclusion) [1]: good physical stability; solubility compared with Form A and Form C ([2]; in FaSSIF and FeSSIF): higher
–	–	7 (≈ 15.2 µM)	4 (≈ 8.68 µM)	141 (≈ 306 µM)	163 (≈ 354 µM)	34 (≈ 73.8 µM)	45 (≈ 97.6 µM)	CCC/N=C1\S/C(=C\c2ccc(OC[C@H](O)CO)c(Cl)c2)C(=O)N1c1ccccc1C [Form A, Ponesimod, reference compound]	thermodynamic stability ([3]; compared with Form C): inferior to Form C
–	–	10 (≈ 21.7 µM)	–	133 (≈ 289 µM)	149 (≈ 323 µM)	29 (≈ 62.9 µM)	24 (≈ 52.1 µM)	CCC/N=C1\S/C(=C\c2ccc(OC[C@H](O)CO)c(Cl)c2)C(=O)N1c1ccccc1C [Form C, Ponesimod, reference compound]	solubility at 1 h ([2]; water, thermodynamic from solid, H2O, 1 h, ND = below the LOD of instrument): 3 µg/mL (≈ 6.51 µM); solubility at 24 h ([2]; water, thermodynamic from solid, H2O, 24 h, ND = below the LOD of instrument): 1 µg/mL (≈ 2.17 µM); solubility (in words) [3]: unsatisfactory
–	–	–	–	–	–	–	–	CCC/N=C1\S/C(=C\c2ccc(OC[C@H](O)CO)c(Cl)c2)C(=O)N1c1ccccc1C [Form III, Ponesimod]	form transformation ([3]; at room temperature): will transform to Form II at room temperature
–	–	–	–	–	–	–	–	CCC/N=C1\S/C(=C\c2ccc(OC[C@H](O)CO)c(Cl)c2)C(=O)N1c1ccccc1C [Ponesimod]	result of phase II mid-stage study [4]: positive results
